From ChEMBL document CHEMBL3217735, “Polyamine-based small molecule epigenetic modulators” (Medchemcomm, 2012)

Experiments:
[1] = target: Lysine-specific histone demethylase 1A (Homo sapiens) (UniProt O60341); assay: Inhibition of N-terminal His6-tagged full length human LSD1 expressed in Escherichia coli BL21 (DE3) using H3K4me2 (1 to 21 amino acids) as substrate assessed as production of H2O2 at 1 uM by luminol-dependent chemiluminescence assay relative to control
[2] = target: Histone deacetylase (Homo sapiens) (UniProt Q13547+O15379+Q9UBN7+Q92769+Q9UQL6+Q8WUI4+Q9BY41+Q96DB2+P56524+Q9UKV0+Q969S8); assay: Inhibition of HDAC in human HeLa cells using Fluor de Lys as substrate at 1 uM by fluorescence assay relative to control; assay type: cell-based
MCF7 = assay: Cytotoxicity against human MCF7 cells after 96 hrs by MTA reduction assay; assay type: functional, cell-based; conditions: MCF7, 96 h
[3] = Selectivity ratio of IC50 for human MCF10A cells to IC50 for human MCF7 cells; assay type: ADME, cell-based, MCF-10A; conditions: MCF10A cells versus MCF7 cells, read-out: Ratio IC50
[4] = Cytotoxicity against human MCF10A cells after 96 hrs by MTA reduction assay; assay type: ADME, cell-based; conditions: MCF-10A

C/N=C(\NC)NCCCNCCCNCCCN/C(=N/C)NC
inhibition [1]: 85.1%

CN(C)c1ccc(CN(CCCNCCCCN)C(=O)CCCCC(=O)NO)cc1
inhibition [2]: 60%

Cc1ccc(CNCCCCNCCCCCC(=O)NCc2ccc(C(=O)Nc3ccccc3N)cc2)cc1
IC50 (MCF7): 0.9 µM
selectivity ratio [3]: > 25
IC50 [4]: 24 µM
